Source: patent US6306860A, “2,5-pyridinedicarboxylic acid derivatives” (Dong Wha Pharm. Inc. Co., Ltd., priority 1998, dated 2001)
Where a name gives a salt, the structure may show the parent alone. Read-outs that look alike come from different tables or passages of the source.

Legend:
[1] = target: T1, HIV reverse transcriptase (Human immunodeficiency virus type 1 group M subtype B, UniProt P04585); assay: In vitro inhibition test against HIV reverse transcriptase; type: biochemical; details: read-out: Inhibitory activity of HIV-RT (%)
T1 construct: purchased Boehringer Mannheim
Summary of the method: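 Non-radioactive colorimetric kit assay: 40 ng HIV-RT with poly(A)/oligo(dT)15 template/primer plus DIG-dUTP, biotin-dUTP and TTP, incubated with compound 1 h at 37 °C. Product captured on streptavidin, detected with anti-DIG-POD and ABTS; A405 read, with activity compared to a no-compound control.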

HBV polymerase = target: T2, HBV polymerase (Hepatitis B virus genotype D subtype ayw, UniProt P03156); assay: Inhibitory activities against HBV polymerase (reverse transcriptase activity) in vitro; type: biochemical; details: read-out: Inhibitory activity of HBV-RT (%); for inhibition at 0.01 µg/mL: 0.01 μg/ml; for inhibition at 0.1 µg/mL: 0.1 μg/ml; for inhibition at 1 µg/mL: 1 μg/ml
T2 construct: made in house; host or cells: E. coli
Summary of the method: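 Recombinant HBV polymerase expressed in E. coli was incubated with reaction mixture and test compound for 18~24 hours at 14° C.~30° C. Reverse transcriptase product, labelled with biotin- and DIG-modified nucleotide, detected ELISA-style with peroxidase anti-DIG antibody; inhibition judged relative to controls without compound.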

HBV = details: results of some studies; cited from earlier work

T2 sequence (P03156 whole entry): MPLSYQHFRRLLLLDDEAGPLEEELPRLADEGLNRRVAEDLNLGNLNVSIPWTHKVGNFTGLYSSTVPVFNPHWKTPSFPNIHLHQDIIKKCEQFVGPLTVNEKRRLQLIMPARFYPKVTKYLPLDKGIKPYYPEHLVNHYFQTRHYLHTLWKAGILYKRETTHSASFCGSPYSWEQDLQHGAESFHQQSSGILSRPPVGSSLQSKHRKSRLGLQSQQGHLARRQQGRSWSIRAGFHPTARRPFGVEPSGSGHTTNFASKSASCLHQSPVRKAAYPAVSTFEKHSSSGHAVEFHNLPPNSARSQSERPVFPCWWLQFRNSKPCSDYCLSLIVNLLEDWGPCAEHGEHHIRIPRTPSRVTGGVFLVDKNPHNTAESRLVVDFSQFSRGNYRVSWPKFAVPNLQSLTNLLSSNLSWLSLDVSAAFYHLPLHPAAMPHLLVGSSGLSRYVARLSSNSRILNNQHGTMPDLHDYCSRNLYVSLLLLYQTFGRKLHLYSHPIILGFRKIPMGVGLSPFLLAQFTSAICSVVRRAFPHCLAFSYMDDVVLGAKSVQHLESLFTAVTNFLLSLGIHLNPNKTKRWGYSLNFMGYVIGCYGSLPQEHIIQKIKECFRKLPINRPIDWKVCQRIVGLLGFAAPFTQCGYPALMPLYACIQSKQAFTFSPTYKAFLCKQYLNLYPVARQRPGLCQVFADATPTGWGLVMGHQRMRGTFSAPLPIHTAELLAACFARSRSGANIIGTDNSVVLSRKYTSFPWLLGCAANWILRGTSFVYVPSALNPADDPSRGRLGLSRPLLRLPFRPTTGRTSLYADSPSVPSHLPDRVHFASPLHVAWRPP

Compound	inhibition at 0.1 µg/mL ([1]; 0.1 μg/ml)	inhibition at 1 µg/mL ([1]; 1 μg/ml)	inhibition at 0.01 µg/mL (HBV polymerase)	inhibition at 0.1 µg/mL (HBV polymerase)	inhibition at 1 µg/mL (HBV polymerase)	inhibition at 0.1 µg/mL [1]	inhibition at 1 µg/mL [1]	suppressing the proliferation of HBV (HBV)
CC(C)Nc1cccnc1N1CCN(C(=O)c2ccc(C(=O)NCCc3cccs3)cn2)CC1 [Exam. 81, 6-[1-[3-(isopropylamino)-2-pyridyl]piperazin-4-yl-carbonyl]-N-[2-(2-thienyl)ethyl]nicotinamide]	54%	75%	44%	60%	80%			
CC(C)Nc1cccnc1N1CCN(C(=O)c2ccc(C(=O)NCCc3ccccn3)cn2)CC1 [Exam. 82, 6-[1-[3-(isopropylamino)-2-pyridyl]piperazin-4-yl-carbonyl]-N-[2-(2-pyridyl)ethyl]nicotinamide]	65%	80%	24%	53%	67%			
CC(C)Nc1cccnc1N1CCN(C(=O)c2ccc(C(=O)NCCCn3ccnc3)cn2)CC1 [Exam. 83, N-[3-(1H-imidazol-1-yl)propyl]-6-[1-[3-(isopropylamino)-2-pyridyl]piperazin-4-yl-carbonyl]nicotinamide]	30%	62%	65%	72%	89%			
CC(C)CNc1cccnc1N1CCN(C(=O)c2ccc(C(=O)NCCCn3ccnc3)cn2)CC1 [Exam. 84, N-[3-(1H-imidazol-1-yl)propyl]-6-[1-[3-(isobutylamino)-2-pyridyl]piperazin-4-yl-carbonyl]nicotinamide]	50%	62%	60%	72%	88%			
CC(C)Nc1cccnc1N1CCN(C(=O)c2ccc(C(=O)Nc3ncccc3O)cn2)CC1 [Exam. 85, N-(3-hydroxy-2-pyridyl)-6-[1-[3-(isopropylamino)-2-pyridyl]piperazin-4-yl-carbonyl]nicotinamide]	47%	70%	61%	70%	88%			
CC(C)NC(=O)c1ccc(C(=O)N2CCN(CCO)CC2)nc1 [Exam. 87, 6-[1-(2-hydroxyethyl)piperazin-4-yl-carbonyl]-N-isopropylnicotinamide.HCl]	60%	81%	52%	58%	75%			
CC(C)CNC(=O)c1ccc(C(=O)N2CCN(CCO)CC2)nc1 [Exam. 88, 6-[1-(2-hydroxyethyl)piperazin-4-yl-carbonyl]-N-isobutylnicotinamide.HCl]	50%	70%	55%	67%	81%			
CCNC(=O)c1ccc(C(=O)N2CCN(CCO)CC2)nc1 [Exam. 89, N-ethyl-6-[1-(2-hydroxyethyl)piperazin-4-yl-carbonyl]nicotinamide.HCl]	35%	62%	35%	50%	68%			
O=C(NCCO)c1ccc(C(=O)N2CCN(CCO)CC2)nc1 [Exam. 93, N-(2-hydroxyethyl)-6-[1-(2-hydroxyethyl)piperazin-4-yl-carbonyl]nicotinamide]	25%	50%	30%	59%	73%			
CC[C@H](CO)NC(=O)c1ccc(C(=O)N2CCN(CCO)CC2)nc1 [Exam. 94, 6-[1-(2-hydroxyethyl)piperazin-4-yl-carbonyl]-N-[(1R)-1-(hydroxymethyl)propyl]nicotinamide.HCl]	30%	62%	20%	51%	72%			
COCCNC(=O)c1ccc(C(=O)N2CCN(CCO)CC2)nc1 [Exam. 98, 6-[1-(2-hydroxyethyl)piperazin-4-yl-carbonyl]-N-(2-methoxyethyl)nicotinamide.HCl]	61%	76%	57%	70%	85%			
COCCCNC(=O)c1ccc(C(=O)N2CCN(CCO)CC2)nc1 [Exam. 99, 6-[1-(2-hydroxyethyl)piperazin-4-yl-carbonyl]-N-(3-methoxypropyl)nicotinamide]	65%	75%	15%	60%	68%			
COCCN(CCOC)C(=O)c1ccc(C(=O)N2CCN(CCO)CC2)nc1 [Exam. 100, N,N-bis(2-methoxyethyl)-6-[1-(2-hydroxyethyl)piperazin-4-yl-carbonyl]nicotinamide.HCl]	40%	64%	20%	49%	77%			
COC(CNC(=O)c1ccc(C(=O)N2CCN(CCO)CC2)nc1)OC [Exam. 101, N-(2,2-dimethoxyethyl)-6-[1-(2-hydroxyethyl)piperazin-4-yl-carbonyl]nicotinamide]			55%	63%	85%	41%	56%	
O=C(NCCN1CCOCC1)c1ccc(C(=O)N2CCN(CCO)CC2)nc1 [Exam. 102, 6-[1-(2-hydroxyethyl)piperazin-4-yl-carbonyl]-N-[2-(morpholin-4-yl)-ethyl]nicotinamide.HCl]	25%	40%	32%	56%	70%			
O=C(NCc1ccco1)c1ccc(C(=O)N2CCN(CCO)CC2)nc1 [Exam. 103, N-(2-Furylmethyl)-6-[1-(2-hydroxyethyl)piperazin-4-yl-carbonyl]nicotinamide.HCl]	65%	80%	20%	54%	72%			
CC(=O)OCC(CCn1cnc2cnc(N)nc21)COC(C)=O [Famvir]								effective in suppressing the proliferation of HBV
Nc1ccn([C@@H]2CS[C@H](CO)O2)c(=O)n1 [Lamivudine]								effective in suppressing the proliferation of HBV
